Source: patent publication US20240100062A1, “Methods of Treatment With an Iboga Alkaloid” (priority 2022, published 2024)
“Also recorded” adds a separate entry of the source.

What was measured:
cortical neuron = details: in vitro; cited from earlier work
[1] = tested on: special operations veterans; assay: WHODAS 2.0 disability assessment, Example 1 study; assay type: in vivo, human; details: for WHODAS 2.0 Self Care subscale, mean: baseline 5.2% ± 9.2%; for WHODAS 2.0 Mobility subscale, mean: baseline 14.7% ± 15.7%
Experimental: (§1) With subjects in the fasting state, an intravenous infusion of 1 gram of magnesium sulfate was administered 1-2 hours prior to treatment. […] Medical staff (MD, RN, or EMT) were onsite at a ratio of at least 1 staff per 2 patients throughout treatment for monitoring and management, but no specific coaching or psychological support was provided during treatment.
(§2) Post treatment, each subject was assessed four days after treatment, one month after treatment, and, if willing, one year after treatment. The post-treatment assessments conducted at four days and at one month after treatment included neuropsychological testing, measures of PTSD, depression, anxiety, mystical experiences, functional imaging and EEG. Post-treatment assessments conducted at one year after treatment included PTSD, depression, and anxiety measures.
World Health Organization Disability Assessment Scale 2.0 (WHODAS 2.0) was used as a measure of function. WHODAS was used to assess the impact of health conditions across six life domains (cognition, mobility, self-care, interpersonal, life activities, and community participation) and it is sensitive to change over time (Gold, L. H., J. Am. Acad. Psychiatry Law 42, 9 (2014). Each item in the assessment is rated on a scale ranging from no problems to extreme problems (Üstün, T. B. et al., Measuring health and disability: Manual for WHO disability assessment schedule WHODAS 2.0. (World Health Organization, 2010)). To capture inter-individual variability in disability the WHODAS complex scoring method was used. Raw scores were converted to a metric ranging from 0 (no disability) to 100 (full disability), by calculating the ratio of the participant's score relative to the maximum possible score in each domain as well as to the total score (Id.). A score of 20%-39% was considered mild, 40%-59% was moderate, 60%-79% was moderate-severe and 80%-100% was severe. Scores from baseline were compared to scores from one-month post treatment.

[2] = tested on: special operations veterans; assay: Brief Visuospatial Memory Test-Revised (BVMT-R), Example 1 study; assay type: in vivo, human
[3] = tested on: special operations veterans; assay: Delis-Kaplan Executive Function System (D-KEFS), Example 1 study; assay type: in vivo, human
[4] = tested on: special operations veterans; assay: Hamilton Anxiety Rating Scale (HAM-A), Example 1 study; assay type: in vivo, human; details: for HAM-A score, mean: p(FDR) <0.001
Experimental: as §1, §2
(§3) Clinician administered scales included CAPS-5 (Clinician-administered PTSD Scale for DSM-5), which is a gold standard assessment of PTSD symptom severity; MADRS (Montgomery-Asberg Depression Rating Scale), a measure for depressive symptom severity; and Hamilton-Anxiety Rating Scale (HAM-A) (Shear, M. K. et al., Depress. Anxiety 13, 166-178 (2001)) a measure for anxiety symptom severity; SCID-5 (Structured Clinical Interview for DSM-5) Overview for a historical and environmental context of symptom presentation; MINI DSM-5 (Mini International Neuropsychiatric Interview from DSM-5) for a structured psychodiagnostics assessment; BAT-L (Boston Assessment of TBI—Lifetime) for a lifetime history of TBI and blast exposure; and Ohio State University TBI Identification Method (Short Form) for a lifetime history of TBI. MADRS testing provides an indication of depressive symptoms, CAPS-5 provides an indication of PTSD and SIGH-A provides an indication of anxiety. Collectively these overlap to provide indication of mood, concentration, sleep and tension.
To assess anxiety symptoms, the Hamilton Anxiety Rating Scale was used. This scale includes 14-items assessing both psychic and physical symptoms of anxiety. Items are rated on a scale from 0 (no symptoms) to 4 (severe symptoms). Total score ranges were: no or minimal anxiety (≤7), mild (8-14), moderate (15-23), and severe anxiety symptoms (≥24) (Matza et al., Int. J Methods Psychiatr. Res. 19, 223-232 (2010)).

[5] = tested on: special operations veterans; assay: CAPS-5 clinician-administered PTSD scale, Example 1 study; assay type: in vivo, human; details: for CAPS-5 score, mean: p(FDR) <0.001
Experimental: as §1, §2, §3
For the CAPS-5, the test version with a […] structured interview of PTSD symptoms over the past week was used, using a 0 (“Absent”) to 4 (“Extreme/Incapacitating”) scale, with possible total scores ranging from 0 to 80. The score range 23 to 34 is considered moderate PTSD while a higher score represents severe PTSD (Weathers, F. W. et al., Psychol. Assess. 30, 383-395 (2018)).

[6] = tested on: special operations veterans; assay: Safety monitoring (adverse events, QTc by ECG), Example 1 study; assay type: in vivo, human
Experimental: as §1

CCC1CC2CC3c4[nH]c5ccc(OC)cc5c4CCN(C2)C13 (centres unmarked) [ibogaine, Ibogaine]
Cortical neuron dendritic arbor complexity (cortical neuron): increases cortical neuron dendritic arbor complexity | WHODAS 2.0 Mobility subscale, D ([1]; Baseline vs One-Month): 0.83 | WHODAS 2.0 Self Care subscale, D ([1]; Baseline vs One-Month): 0.51 | WHODAS 2.0 Cognition subscale, D ([1]; Baseline vs Post-Treatment): 0.96 | WHODAS 2.0 Community Participation subscale, D ([1]; Baseline vs Post-Treatment): 0.53 | WHODAS 2.0 Interpersonal subscale, D ([1]; Baseline vs Post-Treatment): 0.60 | WHODAS 2.0 Life Activities subscale, D ([1]; Baseline vs Post-Treatment): 0.48 | WHODAS 2.0 Mobility subscale, D ([1]; Baseline vs Post-Treatment): 0.53 | WHODAS 2.0 Self Care subscale, D ([1]; Baseline vs Post-Treatment): 0.37 | WHODAS 2.0 Self Care subscale, mean ([1]; One-Month, SD 2.9%, p(FDR) 0.009): 1.0% ± | WHODAS 2.0 Mobility subscale, mean ([1]; One-Month, SD 3.3%, p(FDR) <0.001): 1.3% ± | WHODAS 2.0 Cognition subscale, mean ([1]; One-Month, SD 7.9%, baseline 36.1% ± 14.6%, p(FDR) <0.001): 5.0% ± | WHODAS 2.0 Interpersonal subscale, mean ([1]; One-Month, SD 9.5%, baseline 32.3% ± 20.4, p(FDR) <0.001): 4.8% ± | WHODAS 2.0 Community Participation subscale, mean ([1]; One-Month, SD 13.1%, baseline 35.6% ± 21.1%, p(FDR) <0.001): 5.9% ± | WHODAS 2.0 Life Activities subscale, mean ([1]; One-Month, SD 16.2%, baseline 41.1% ± 24.8%, p(FDR) <0.001): 9.1% ± | WHODAS 2.0 Self Care subscale, mean ([1]; Post-Treatment, SD 4.7%, p(FDR) 0.028): 1.9% ± | WHODAS 2.0 Mobility subscale, mean ([1]; Post-Treatment, SD 13.5%, p(FDR) 0.001): 7.2% ± | Functioning ([1]; immediately and one-month post-treatment): clinically and statistically significant improvements in functioning | Visuospatial Memory (BVMT-R), D ([2]; baseline vs 1-month post): 0.32 | Visuospatial Memory (BVMT-R), D ([2]; baseline vs 1-wk post): 0.50 | Visual memory improvement ([2]; both timepoints): significant improvement in visual memory at both timepoints | Phonemic Fluency (D-KEFS Verbal Fluency), mean ± SD ([3]; 1-mo. post, baseline 57.0 ± 11.7, p(FDR) <0.001): 64.0 ± 10.1 T score | Cognitive Flexibility Composite, D ([3]; baseline vs 1-month post): 0.74 | Cognitive Inhibition (D-KEFS Color/Word Interference, Condition 3), D ([3]; baseline vs 1-month post): 0.62 | Phonemic Fluency (D-KEFS Verbal Fluency), D ([3]; baseline vs 1-month post): 1.11 | Problem Solving (D-KEFS TT, Total Achievement Score), D ([3]; baseline vs 1-month post): 0.44 | Semantic Fluency (D-KEFS Verbal Fluency), D ([3]; baseline vs 1-month post): 0.24 | Cognitive Flexibility Composite, D ([3]; baseline vs 1-wk post): 0.43 | Phonemic Fluency (D-KEFS Verbal Fluency), D ([3]; baseline vs 1-wk post): 0.52 | Problem Solving (D-KEFS TT, Total Achievement Score), D ([3]; baseline vs 1-wk post): 0.49 | Semantic Fluency (D-KEFS Verbal Fluency), D ([3]; baseline vs 1-wk post): 0.02 | Language (semantic fluency) performance change ([3]; post treatment time points): No significant performance changes | HAM-A score, mean ([4]; 1-mo. post, SD 4.6, baseline 20.7 ± 8.6, N 28, only participants with mild TBI): 3.7 | HAM-A score, mean ([4]; 1-mo. post, SD 6.3, baseline 23.8 ± 7.6, N 14, only participants meeting diagnostic criteria per MINI at baseline): 5.1 | HAM-A % Reduction vs Baseline, mean ([4]; 1-mo. post, SD 21%, only participants with mild TBI): 82% ± | HAM-A % Reduction vs Baseline, mean ([4]; 1-mo. post, SD 23%, only participants meeting diagnostic criteria per MINI): 80% ± | HAM-A score, mean ([4]; 1-wk post, SD 3.4, baseline 23.8 ± 7.6, N 14, only participants meeting diagnostic criteria per MINI at baseline): 4.2 | HAM-A score, mean ([4]; 1-wk. post, SD 3.3, baseline 20.7 ± 8.6, N 28, only participants with mild TBI): 3.3 | HAM-A % Reduction vs Baseline, mean ([4]; 1-wk. post, SD 14%, only participants meeting diagnostic criteria per MINI): 82% ± | HAM-A % Reduction vs Baseline, mean ([4]; 1-wk. post, SD 19%, only participants with mild TBI): 82% ± | CAPS-5 score, mean ([5]; 1-mo. post, SD 8.1, baseline 31.7 ± 13.0, N 28, only participants with mild TBI): 4.8 | CAPS-5 score, mean ([5]; 1-mo. post, SD 8.7, baseline 35.7 ± 11.0, N 23, only participants meeting diagnostic criteria per MINI at baseline): 6.0 | CAPS-5 % Reduction vs Baseline, mean ([5]; 1-mo. post, SD 17%, only participants with mild TBI): 88% ± | CAPS-5 % Reduction vs Baseline, mean ([5]; 1-mo. post, SD 19%, only participants meeting diagnostic criteria per MINI): 86% ± | CAPS-5 score, mean ([5]; 1-wk post, SD 5.2, baseline 35.7 ± 11.0, N 23, only participants meeting diagnostic criteria per MINI at baseline): 4.4 | CAPS-5 score, mean ([5]; 1-wk. post, SD 4.5, baseline 31.7 ± 13.0, N 28, only participants with mild TBI): 3.6 | CAPS-5 % Reduction vs Baseline, mean ([5]; 1-wk. post, SD 14%, only participants with mild TBI): 89% ± | CAPS-5 % Reduction vs Baseline, mean ([5]; 1-wk. post, SD 17%, only participants meeting diagnostic criteria per MINI): 87% ± | Participants treated for insomnia ([6]; 1 participant, during oneirogenic effects): 3% | Participants treated for hypertension ([6]; 2 participants, during oneirogenic effects): 7% | Participants treated for anxiety ([6]; 3 participants, during oneirogenic effects): 10% | Participants treated for nausea ([6]; 7 participants, during oneirogenic effects): 23% | Participants treated for headache ([6]; 12 participants, during oneirogenic effects): 40% | Transient cerebellar signs such as mild ataxia and intention tremor ([6]; 30 participants): All participants experienced transient cerebellar signs | Unexpected or serious adverse events ([6]; 30 participants, 12.1±1.2 mg/kg oral ibogaine with IV magnesium sulfate, 1.2 mg/kg): no unexpected or serious treatment-emergent side effects; also recorded: no unexpected or serious adverse events | QTc prolongation ([6]; continuous 5-lead ECG 12-16 hours after ibogaine): no instances of a concerning prolongation of QTc
